Where “and” joins values, the source holds several entries; their conditions need not be identical. Identical values can stand only once.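 Briefly, cells in 96-well plates were exposed to five compound concentrations for 48 h, and endpoints were estimated by linear interpolation. GI50 is the concentration that inhibits growth by half.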 Calls of active or inactive are those of the source. No stated cut-off is given here; in the data, active = GI50 up to about 1.1 µM and inactive = higher.
Tests used:
Experiment in all cases: growth of human tumour cells (NCI), 48 h
[1] = system: DLD-1
[2] = system: HCC 2998
[3] = system: HCT-116
[4] = system: IGROV-1
[5] = system: KM12
[6] = system: LOX IMVI
[7] = system: MOLT-4
[8] = system: OVCAR-3
[9] = system: SF-295
[10] = system: SK-OV-3
[11] = system: SNB-19
[12] = system: SW-620
[13] = system: HCT-15
[14] = system: NCI-H460
[15] = system: Hs-578T
[16] = system: MCF7
[17] = system: MDA-N
[18] = system: NCI/ADR-RES
[19] = system: RXF 393

| SMILES | GI50 [1] | GI50 [2] | GI50 [3] | GI50 [4] | GI50 [5] | GI50 [6] | GI50 [7] | GI50 [8] | GI50 [9] | GI50 [10] | GI50 [11] | GI50 [12] | GI50 [13] | GI50 [14] | GI50 [15] | GI50 [16] | GI50 [17] | GI50 [18] | GI50 [19] |
| --- | --- | --- | --- | --- | --- | --- | --- | --- | --- | --- | --- | --- | --- | --- | --- | --- | --- | --- | --- |
| COC(=O)/N=C(\NC(=O)OC)Nc1ccc(Oc2ccccc2)cc1NC=O | 0.536 µM (active) | 0.968 µM (active) | 0.49 µM (active) | 1.62 µM (inactive) | 0.466 µM (active) | 1.97 µM (inactive) | 0.836 µM (active) | 0.327 µM (active) | 0.439 µM (active) | 0.215 µM (active) | > 100 µM (inactive) | 0.388 µM (active) |  |  |  |  |  |  |  |
| CN1C[C@@H]2CC(=O)CC[C@@H]2C[C@H]1C#N | > 100 µM (inactive) | > 100 µM (inactive) | > 100 µM (inactive) | > 100 µM (inactive) | > 100 µM (inactive) | > 100 µM (inactive) | > 100 µM (inactive) | > 100 µM (inactive) | > 100 µM (inactive) | > 100 µM (inactive) | > 100 µM (inactive) | > 100 µM (inactive) | > 100 µM | > 100 µM (inactive) |  |  |  |  |  |
| CCN(CC)CCNc1ccc2nc(C)n3c4ccc(O)cc4c(=O)c1c23 | 0.371 µM (active) | 0.552 µM (active) | 0.357 µM (active) | 1.38 µM (inactive) | 3.02 µM (inactive) | 0.71 µM (active) | 0.0447 µM (active) | 1.97 µM (inactive) | 0.462 µM (active) | 1.14 µM (inactive) | 0.546 µM (active) | 0.596 µM (active) | 0.64 µM | 0.215 µM (active) |  |  |  |  |  |
| C[C@]12CCC[C@H](O)[C@H]1C[C@H](CO)CC2 | > 100 µM (inactive) | > 100 µM (inactive) | > 100 µM (inactive) | > 100 µM (inactive) | > 100 µM (inactive) | > 100 µM (inactive) | > 100 µM (inactive) | > 100 µM (inactive) | > 100 µM (inactive) | > 100 µM (inactive) | > 100 µM (inactive) | > 100 µM (inactive) | > 100 µM | > 100 µM (inactive) |  |  |  |  |  |
| C[C@]12CC[C@H](O)CC1=CC[C@@H]1[C@@H]2CC[C@]2(C)C(=N/O)/C(=C/c3ccc([N+](=O)[O-])cc3)C[C@@H]12 |  | 2.37 µM (inactive) | 3.93 µM (inactive) | 7.48 µM (inactive) | 0.841 µM (active) | 8.34 µM (inactive) | 3.66 µM (inactive) | 1.76 µM (inactive) | 0.45 µM (active) | 0.403 µM (active) | 10.6 µM (inactive) | 9.86 µM (inactive) | 4.78 µM | 0.519 µM (active) | 12.1 µM (inactive) | 3.78 µM (inactive) | 6.93 µM (inactive) | 6.03 µM (inactive) | 3.6 µM (inactive) |
| CSc1nc(SC)c2c(C)cn(C3OC(C)C(O)C(O)C3O)c2n1 (configuration not stated) |  | 57.5 µM (inactive) | > 100 µM (inactive) | 70 µM (inactive) | 56.8 µM (inactive) | 31.8 µM (inactive) | 39.3 µM (inactive) | 48.8 µM (inactive) | 57 µM (inactive) | > 100 µM (inactive) | 57 µM (inactive) | > 100 µM (inactive) | 74.1 µM | 43.1 µM (inactive) | 45.6 µM (inactive) | 58.9 µM (inactive) | 67.6 µM (inactive) | 67.3 µM (inactive) | > 100 µM (inactive) |
| O=C1C=C2C(=NC34CCCCC3C(c3ccccc3)C3=C(c5ccccc5CC3)N24)c2ccccc21 (configuration not stated) |  | > 10 µM (inactive) | > 10 µM (inactive) | > 10 µM (inactive) | > 10 µM (inactive) | > 10 µM (inactive) | > 10 µM (inactive) | > 10 µM (inactive) | > 10 µM (inactive) | > 10 µM (inactive) | > 10 µM (inactive) | > 10 µM (inactive) | > 10 µM | > 10 µM (inactive) | > 10 µM (inactive) | > 10 µM (inactive) | > 10 µM (inactive) | > 10 µM (inactive) | > 10 µM (inactive) |
| Nc1ncnc2c1ncn2[C@H]1C=C[C@@H](NO)C1 |  | > 100 µM (inactive) | > 100 µM (inactive) | > 100 µM (inactive) | > 100 µM (inactive) | > 100 µM (inactive) | > 100 µM (inactive) | > 100 µM (inactive) | > 100 µM (inactive) | > 100 µM (inactive) | > 100 µM (inactive) | > 100 µM (inactive) | > 100 µM | > 100 µM (inactive) | > 100 µM (inactive) | > 100 µM (inactive) | > 100 µM (inactive) | > 100 µM (inactive) | > 100 µM (inactive) |
| COc1ccc2c(c1)/C(=C\c1c(Cl)nc3sc(C)cn13)C(=O)N2 |  | 6.43 µM (inactive) | 3.1 µM (inactive) | 3.72 µM (inactive) | 1.71 µM (inactive) | 4.22 µM (inactive) | 1.54 µM (inactive) | 2.41 µM (inactive) | 1.74 µM (inactive) | 4.03 µM (inactive) | 3.84 µM (inactive) | 0.826 µM (active) | 2.62 µM | 2.51 µM (inactive) | 2.74 µM (inactive) | 3.52 µM (inactive) | 0.418 µM (active) | 3.56 µM (inactive) | 8.22 µM (inactive) |
| CC(=O)NNc1nc(C)c(C(/C=C/c2ccc([N+](=O)[O-])cc2)=N/N)s1 |  | 66.1 µM (inactive) | > 100 µM (inactive) | 54 µM (inactive) | > 100 µM (inactive) | 86.9 µM (inactive) | > 100 µM (inactive) | > 100 µM (inactive) | > 100 µM (inactive) | 41.3 µM (inactive) | > 100 µM (inactive) | > 100 µM (inactive) | > 100 µM | > 100 µM (inactive) | > 100 µM (inactive) | > 100 µM (inactive) | > 100 µM (inactive) | > 100 µM (inactive) | 55.3 µM (inactive) |
| COC(=O)C1=C(C(=O)OC)N(c2ccncc2)C(c2ccco2)=CC1c1ccccc1[N+](=O)[O-] (configuration not stated) |  | 2.03 µM (inactive) | 1.6 µM (inactive) | 1.95 µM (inactive) | 1.6 µM (inactive) | 1.72 µM (inactive) | 2.16 µM (inactive) | 5.27 µM (inactive) | 6.19 µM (inactive) | 16.8 µM (inactive) | 7.18 µM (inactive) | 6.9 µM (inactive) | 1.89 µM | 6.11 µM (inactive) | 5.94 µM (inactive) | 1.87 µM (inactive) | 2.71 µM (inactive) | 12.1 µM (inactive) | 4.65 µM (inactive) |
| C=C(Cl)C(Cl)(CBr)CCC(Br)C(C)(C)Cl (configuration not stated) |  | 3.15 µM (inactive) and 2.61 µM (inactive) and 1.59 µM (inactive) | 508 nM (active) and 1.95 µM (inactive) and 448 nM (active) | 11.9 µM (inactive) and 21.5 µM (inactive) and 8.41 µM (inactive) | 1.34 µM (inactive) and 2.32 µM (inactive) and 1.43 µM (inactive) | 19.1 µM (inactive) and 5.7 µM (inactive) and 15.6 µM (inactive) | 20.6 µM (inactive) and 10.1 µM (inactive) and 13.5 µM (inactive) | 798 nM (active) and 2.23 µM (inactive) and 1.51 µM (inactive) | 1.79 µM (inactive) and 1.65 µM (inactive) and 1.35 µM (inactive) | 2.36 µM (inactive) and 27.2 µM (inactive) | 2.41 µM (inactive) and 863 nM (active) and 3.49 µM (inactive) | 1.91 µM (inactive) and 12.2 µM (inactive) and 1.52 µM (inactive) | 2.07 µM and 13.3 µM and 3.18 µM | 2.34 µM (inactive) and 1.57 µM (inactive) and 1.45 µM (inactive) | 914 nM (active) and 1.11 µM (active) and 665 nM (active) | 1.26 µM (inactive) and 2.54 µM (inactive) and 220 nM (active) | 2.28 µM (inactive) and 964 nM (active) and 8.77 µM (inactive) | 12 µM (inactive) and 2.44 µM (inactive) and 1.83 µM (inactive) | 991 nM (active) and 190 nM (active) and 1.11 µM (active) |
| COc1cc(Br)c(CC2C3=C(CCN2C(=O)C2CCC2)CC2(CC3)OCCO2)cc1O (configuration not stated) |  | 28.8 µM (inactive) | 72.8 µM (inactive) | 58.7 µM (inactive) | 50.6 µM (inactive) | > 100 µM (inactive) | 43.3 µM (inactive) | 33.5 µM (inactive) | 49.7 µM (inactive) | 68.2 µM (inactive) | > 100 µM (inactive) | 80.2 µM (inactive) | 27.9 µM | 50.2 µM (inactive) | 33.8 µM (inactive) | 28.6 µM (inactive) | 34.4 µM (inactive) | 26.5 µM (inactive) | 4.84 µM (inactive) |
| O=C(c1ccccc1)c1ccc(N2C(=O)/C(=C/c3cccc(Oc4ccccc4)c3)N=C2c2ccccc2)c(N2C(=O)/C(=C/c3cccc(Oc4ccccc4)c3)N=C2c2ccccc2)c1 |  | 20 µM (inactive) | 36.1 µM (inactive) | 39.1 µM (inactive) | 24.5 µM (inactive) | 32.9 µM (inactive) | 11.9 µM (inactive) | 18.9 µM (inactive) | 25 µM (inactive) | 42.9 µM (inactive) | 38.5 µM (inactive) | 30.7 µM (inactive) | 21.2 µM | 23.9 µM (inactive) | 26.9 µM (inactive) | 24.9 µM (inactive) | 5.09 µM (inactive) | 18.5 µM (inactive) | 23.8 µM (inactive) |
| CCN(CC)c1c(C(=O)/C=C/c2ccccc2)c(-c2ccccc2)nn(C)c1=O | 3.27 µM (inactive) |  |  | 9.79 µM (inactive) | 4.18 µM (inactive) | 3.55 µM (inactive) | 1.66 µM (inactive) |  | 6.01 µM (inactive) | > 100 µM (inactive) | 29.4 µM (inactive) |  |  | 3.83 µM (inactive) |  |  |  |  | 3.98 µM (inactive) |
| CC1(C)CCC[C@@]2(C)C1CC[C@@]1(CO)O[C@H](C3=CC(=O)OC3O)C[C@H]12 (some centres not stated) |  | 17.4 µM (inactive) | 6.1 µM (inactive) | 18.1 µM (inactive) | 20.8 µM (inactive) | 1.56 µM (inactive) | 3.03 µM (inactive) | 14.9 µM (inactive) | 21.5 µM (inactive) | 29.4 µM (inactive) | 16.2 µM (inactive) | 7.74 µM (inactive) | 7.57 µM | 17.7 µM (inactive) | 14.7 µM (inactive) | 6.82 µM (inactive) | 12.6 µM (inactive) | 15 µM (inactive) | 11 µM (inactive) |

Reference: ChEMBL document CHEMBL1201862, “PubChem BioAssay data set” (2004)
